Several values for one entry are separate records, joined by “and”; a condition that tells them apart may be missing. Equal entries are not always repeated.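 Grown in 96-well plates, cells were treated for 48 hours with each compound at five concentrations. Insufficient inhibition: endpoint recorded as highest concentration tested. GI50 is the concentration that inhibits growth by half. TGI denotes the concentration required for complete inhibition of growth.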

Among the test systems are U251 CNS; UACC-62 melanoma; SR leukemia; SN12C renal; NCI/ADR-RES ovarian; SW-620 colon; HOP-92 NSCLC; UO-31 renal; BT-549 breast; MALME-3M melanoma.
What all share (test): NCI-60 cell line screen, 48 h

Take `O=S(=O)(NCCCNc1cc(-c2cn(-c3ccccc3)nc2-c2cccc(O)c2)ccn1)c1ccc(Cl)cc1`: the GI50 in the assay on U251 CNS is 1.35 µM; in the assay with UACC-62 melanoma, 1.67 µM; with SR leukemia, 1.58 µM; in the assay with SN12C renal it was 2.23 µM; in the assay with NCI/ADR-RES ovarian, 1.94 µM; with SW-620 colon it was 1.62 µM. Moreover, the values for the GI50 in the assay on HOP-92 NSCLC and in the assay with UO-31 renal were 1.52 µM and 2.03 µM, respectively. The TGI with U251 CNS came out at 3.47 µM; in the assay on UACC-62 melanoma, 3.67 µM; in the assay with SR leukemia, 5.16 µM; in the assay on SN12C renal it was 6.09 µM; in the assay on NCI/ADR-RES ovarian it was 5.3 µM; in the assay on SW-620 colon, 3.54 µM. Besides, the TGI in the assay with HOP-92 NSCLC worked out at 4.74 µM; with UO-31 renal, 8.64 µM.
Turning to `CCN(CC(COc1ccc2c(c1)[n+]([O-])nc(N)[n+]2[O-])OC(C)=O)C(C)=O` (centres undefined), the TGI in the assay with U251 CNS, in the assay with UACC-62 melanoma, in the assay with SR leukemia, with SN12C renal, in the assay with NCI/ADR-RES ovarian and in the assay on BT-549 breast was > 100 µM throughout. Also, the TGI with SW-620 colon and in the assay with UO-31 renal was > 100 µM in each case.
As for `CCN(CC)CC(O)C1CCC(c2ccccc2)CC1` (centres undefined), the TGI in the assay with U251 CNS was 62.7 µM; in the assay on UACC-62 melanoma, 30.9 µM; with MALME-3M melanoma, 32.3 µM; in the assay with SN12C renal, > 100 µM; in the assay with NCI/ADR-RES ovarian, > 100 µM; in the assay on SW-620 colon, 80.9 µM. In addition, the TGI in the assay with HOP-92 NSCLC was found to be 86.9 µM; in the assay on UO-31 renal it was 32.3 µM.
As to `COC(=O)c1ccc(C2SCC(=O)N2NC(=O)C(O)c2ccccc2)cc1` (centres undefined), the GI50 in the assay with U251 CNS, in the assay with UACC-62 melanoma, with MALME-3M melanoma, in the assay with SN12C renal, in the assay on BT-549 breast and in the assay with SW-620 colon was > 100 µM throughout. The GI50 in the assay with HOP-92 NSCLC and with UO-31 renal was > 100 µM throughout. Further, the TGI with U251 CNS, in the assay on UACC-62 melanoma, with MALME-3M melanoma, with SN12C renal, in the assay on BT-549 breast and in the assay on SW-620 colon was > 100 µM throughout. For the same compound, the TGI in the assay with HOP-92 NSCLC and with UO-31 renal was > 100 µM in each case.
`CN1CCCN(C(c2ccccc2)c2ccc(Br)cc2)CC1` (centres undefined): the GI50 in the assay with U251 CNS is 3 µM; in the assay with UACC-62 melanoma it was 2.03 µM; in the assay on MALME-3M melanoma, 2.57 µM; in the assay on SN12C renal, 3.51 µM; in the assay on NCI/ADR-RES ovarian it was 3.09 µM; with BT-549 breast it was 4.89 µM. In addition, the GI50 in the assay on SW-620 colon is 2.9 µM; in the assay on HOP-92 NSCLC it was 0.635 µM; with UO-31 renal, 2.65 µM. Further, the TGI was 10.3 µM with U251 CNS; 4.35 µM with UACC-62 melanoma; 11.8 µM with MALME-3M melanoma; 12.5 µM in the assay with SN12C renal; 19.4 µM in the assay on BT-549 breast; 10.6 µM in the assay on SW-620 colon. For the same compound, the figures for the TGI in the assay with HOP-92 NSCLC and in the assay on UO-31 renal were 7.73 µM and 16 µM, respectively.
Consider `CC([O-])C(=O)[O-].NCC1CCC1CN.[Pt+4]` (centres undefined), for which the GI50 was > 10 µM in the assay with U251 CNS; 6.87 µM with UACC-62 melanoma; > 10 µM in the assay with MALME-3M melanoma; > 10 µM with SN12C renal; > 10 µM with NCI/ADR-RES ovarian; > 10 µM in the assay with BT-549 breast. Further, the GI50 in the assay on SW-620 colon and in the assay on HOP-92 NSCLC was > 10 µM each time. Further, the TGI in the assay with U251 CNS, with UACC-62 melanoma, in the assay with MALME-3M melanoma, with SN12C renal, with NCI/ADR-RES ovarian and in the assay on BT-549 breast was > 10 µM each time. In addition, the TGI with SW-620 colon and in the assay with HOP-92 NSCLC was > 10 µM throughout.
As to `Cc1nn(-c2ccc(Br)cc2)c(C)c1CC(=O)c1cc(O)ccc1O`, the GI50 is 10.1 µM in the assay with U251 CNS; 4.24 µM in the assay on UACC-62 melanoma; 0.911 µM with SR leukemia; 6.79 µM in the assay with SN12C renal; 11.2 µM in the assay on NCI/ADR-RES ovarian; 15.8 µM with BT-549 breast. The GI50 in the assay on SW-620 colon is 14.4 µM; in the assay on UO-31 renal it was 15.9 µM. The TGI with U251 CNS was 21.8 µM; in the assay on UACC-62 melanoma, 11.4 µM; with SR leukemia, > 50 µM; with SN12C renal it was 16.6 µM; with NCI/ADR-RES ovarian, 45.6 µM; in the assay with BT-549 breast, 38.4 µM. The TGI with SW-620 colon and in the assay on UO-31 renal was > 50 µM each time.
For the compound `C=C(CN1CCN(c2cccc(F)c2)CC1)c1ccc(C(=O)Nc2ccccc2N)cc1`, the GI50 in the assay on U251 CNS was 1.41 µM; with UACC-62 melanoma, 2.02 µM; in the assay with MALME-3M melanoma, 1.83 µM; in the assay with SN12C renal, 2.74 µM; in the assay with NCI/ADR-RES ovarian it was 0.307 µM; with BT-549 breast, 1.33 µM. Besides, the results for the GI50 with SW-620 colon, in the assay on HOP-92 NSCLC and in the assay with UO-31 renal were 2.53 µM, 0.6 µM and 1.31 µM, respectively. The TGI in the assay on U251 CNS is 43 µM; in the assay with UACC-62 melanoma, 63.5 µM; in the assay on MALME-3M melanoma it was 68 µM; with SN12C renal, > 100 µM; in the assay with NCI/ADR-RES ovarian, 1.92 µM; in the assay with BT-549 breast, 12.6 µM. Moreover, the results for the TGI in the assay with SW-620 colon, in the assay with HOP-92 NSCLC and in the assay with UO-31 renal were > 100 µM, 6.97 µM and 10.2 µM, respectively.
As for `COc1ccc(-c2coc3cc(OC)cc(O)c3c2=O)cc1`, the TGI with U251 CNS, in the assay on UACC-62 melanoma, in the assay on SR leukemia, with MALME-3M melanoma, with SN12C renal and in the assay with NCI/ADR-RES ovarian was > 100 µM in each case. Further, the values for the TGI with SW-620 colon and in the assay on HOP-92 NSCLC were > 100 µM and 94.6 µM, respectively.
As to `COc1ccc(CC2C3=C(CCCC3)CCN2C)cc1` (centres undefined), the TGI in the assay on U251 CNS, in the assay on UACC-62 melanoma, with MALME-3M melanoma, in the assay with SN12C renal, with NCI/ADR-RES ovarian and in the assay on SW-620 colon was > 100 µM each time. Moreover, the TGI with UO-31 renal is > 100 µM.
For the compound `CC(=O)OCC1OC(n2c(-c3ccccc3)c(C)c(C)c(C#N)c2=S)C(OC(C)=O)C(OC(C)=O)C1OC(C)=O` (centres undefined), the TGI in the assay on U251 CNS is 34.6 µM; with UACC-62 melanoma, > 50 µM and 43.5 µM; in the assay with SR leukemia it was > 100 µM; in the assay on MALME-3M melanoma, > 100 µM; with SN12C renal, > 100 µM; with NCI/ADR-RES ovarian, > 100 µM. Moreover, the TGI is > 100 µM in the assay on SW-620 colon; 24 µM with HOP-92 NSCLC; > 50 µM and 37.9 µM with UO-31 renal. Besides, the GI50 is 32.3 µM and 95.3 µM in the assay on SR leukemia; 48.3 µM and > 100 µM in the assay with SN12C renal; 22.9 µM and > 100 µM in the assay with SW-620 colon; 0.0211 µM in the assay on HOP-92 NSCLC; > 50 µM and 12 µM in the assay with UO-31 renal.
